The results in this text go back to patent US11628146B2, “Estrogen receptor ligand treatment for neurodegenerative diseases” (The Regents of the University of California, priority 2014, dated 2023).

“Also recorded” adds a separate entry of the source.

For data set [1], the system named is cerebrum and cerebellum of female C57BL/6 mice with EAE. Nature of the data set: Cerebral and cerebellar neuropathology (gray and white matter) in EAE. Format: in vivo, mouse. The note with it: 30 mg/kg every other day; vs Vehicle EAE. The procedure: Histological Preparation. Mice were exposed to a lethal dose of isoflurane and perfused transcardially with ice-cold 1×PBS for 8-15 min, followed by 10% formalin for 10-15 min. Spinal cords and brains were dissected and submerged in 10% formalin overnight at 4° C., followed by 30% sucrose in PBS for 24 h. Tissues were embedded in […] solution for cryostat sectioning then post-fixed overnight in 10% formalin and cryoprotected in 30% sucrose. The embedded tissues were stored in −80° C. after flash frozen in dry ice. 40 μm thick free-floating spinal cord cross-sections, and sagittal brain sections were obtained with a microtome b cryostat (model HM505E) at −20° C. Tissues were collected serially and stored in 1×PBS with 1% sodium azide in 4° C. until immunohistochemistry.
Immunofluorescence. Prior to histological staining, […] free-floating sections were thoroughly washed with 1×PBS to remove residual sodium azide. In the case of anti-MBP labeling, tissue sections were processed with an additional 1 hour incubation with 5% glacial acetic acid in 100-proof ethanol at room temperature (RT). After washing tissue sections were permeabilized with 0.3% TritonX-100 and 2% normal goat serum in 1×PBS for 30 minutes at room temperature and blocked with 10% normal goat serum in 1×PBS for 1 hour. Tissues were then incubated with primary antibodies overnight in 4° C. The following primary antibody (Ab) were used: Rat anti-MBP (Millipore) at 1:1000 dilutions, Rabbit anti-NF200 (Sigma Aldrich) at 1:750 dilutions, Rabbit anti-beta-APP (Life Technologies) at 1:200 dilutions, Mouse anti-NeuN at 1:1000 dilutions (Millipore), Rabbit anti-PSD95, and Rabbit anti-Synapsin 1 at 1:500 dilutions (Millipore), and Rat anti-CD45 at 1:1500 dilutions (Millipore). The next day tissues were washed and incubated with secondary antibodies conjugated to Cy5 or Cy3 (Millipore) for 1 hour at room temperature. A nuclear stain DAPI (2 ng/mL; Molecular Probes) was added 10 minutes prior to final washes after secondary Ab incubation. Sections were mounted on slides, allowed to semi-dry, and cover slipped in fluoromount G (Fisher Scientific). IgG-control experiments were performed for all primary Ab, and only non-immunoreactive tissues under these conditions were analyzed.
Chromagen Immunohistochemistry. […] Tissues were then incubated with primary antibodies overnight in 4° C. The following primary antibodies were used: Rat anti-CD3 at 1:2000 dilutions (BD Pharmingen), anti-Calbindin D28K at 1:1000 dilutions (Millipore), and Rabbit anti-Iba1 at 1:10000 dilutions (Wako Chemicals), were added for 2 hour at room temperature, and then placed in 4° C. overnight. Tissue sections then followed with secondary Ab labeling at 1:1000 dilutions (Vector labs) for 1 hour at room temperature and then with Avidin-Biotin Conjugation solution (Vector Labs) for 1 hour at room temperature. Tissue sections were treated with DAB peroxidase substrate (Vector labs) according to manufacturer instructions. IgG-control experiments were performed for all primary Ab, and only non-immunoreactive tissues under these conditions were analyzed.
Microscopy and Quantification. Three spinal cord cross-sections at the C5-12 level from each mouse (n=3-6) were captured under microscope at 10× magnification. To quantify demyelination in the spinal cord and cerebellum, white matter was manually delineated on the basis of DAPI staining, and MBP staining intensity was calculated and reported in the sampled area. Axonal damage was assessed by counting beta-APP^+ cells in a confocal 10× microscope in spinal cord. Axonal densities were calculated by counting the number of NF200^+ or NeuN^+ neuronal cells in a 10× confocal image in the sampled area of the captured tissue section. Cerebellar Purkinje (Calbindin^+) cells were manually counted using a brightfield 10× microscope over the entire sagittal cerebellum. […]

Data set [2] is described as follows: Dissolution of the compound in the oil vehicle. Format: physicochemical. The note with it: merely pipetting. As for the experimental part: Reagents. AC-186 was dissolved in either Miglyol 812N liquid oil (Sasol North America) or sesame oil (Sigma Aldrich) as following concentration; 1.5 mg/mL for 3 mg/kg group, 5 mg/mL for 10 mg/kg group, and 15 mg/mL for 30 mg/kg group. Diarylpropionitrile (DPN, Tocris Biosciences) was dissolved in 10% molecular-grade ethanol and diluted with 90% of either Miglyol 812N liquid oil or sesame oil.
Three doses of the AC-186 compound were tested in C57BL6 female mice: low (3 mg/kg, every other day), medium (10 mg/kg, every other day), and high (30 mg/kg, every other day), each injected subcutaneously in a sesame oil vehicle. The ERβ ligand diarylpropionitrile (DPN) was tested as a positive control because DPN can partially ameliorate EAE and because the treatment effects in EAE experiments can vary based on the level of disease severity within an experiment. Direct comparisons between treatments were only made between treatment groups within a single EAE experiment and not between treatment groups of different EAE experiments. […] The difference in improvement between the 30 mg/kg AC-186 group and all other groups increased with time.

As for `Oc1ccc(C2(c3ccccc3F)CCC(F)(F)CC2)cc1` [AC-186], in data set [1], the “Axonal densities (NF200), cerebellar white matter” value was “a protective effect; also recorded: significantly more axon numbers”; the “Axonal densities (NF200), cerebral white matter (splenium of the corpus callosum)” value was “a protective effect; also recorded: significantly more axon numbers”; the “Calbindin+ Purkinje cells, cerebellar gray matter” value is given as “prevented; also recorded: a protective effect; also recorded: higher numbers of Calbindin^+ Purkinje cells”; the “Myelin staining intensity (MBP), cerebellar white matter” value is given as “a protective effect; also recorded: higher MBP staining intensity”. Further, in data set [1], the “Myelin staining intensity (MBP), cerebral white matter (splenium of the corpus callosum)” value was “a protective effect; also recorded: a trend for higher MBP staining intensity”; the “NeuN+ neuronal cells, cerebral cortex gray matter” value is given as “prevented; also recorded: a protective effect; also recorded: higher numbers of NeuN^+ cortical neurons”; the “PSD-95 staining, cerebellar gray matter (molecular layer)” value is “prevented; also recorded: a protective effect; also recorded: greater PSD-95 and Synapsin1 staining”; the “PSD-95 staining, cerebral cortex gray matter” value was “prevented; also recorded: a protective effect; also recorded: greater PSD-95 staining”. In data set [1], the “Synapsin1 staining, cerebellar molecular layer” value is “a protective effect; also recorded: greater PSD-95 and Synapsin1 staining”; the “Synapsin-1 staining, cerebral cortex gray matter” value is given as “No effect was observed; also recorded: no significant differences in Synapsin-1 staining”. The “Time to dissolve in miglyol” value in data set [2] turned out to be 30 s.
